Measurements reported in patent US20260083722A1, “BIFUNCTIONAL DEGRADERS COMPRISING ELECTROPHILIC PROTACS THAT ENGAGE DCAF1 AND PHARMACEUTICAL COMPOSITIONS COMPRISING THE SAME” (THE SCRIPPS RESEARCH INSTITUTE, priority 2022, published 2026).

Target: T1, HA-FKBP12 (Homo sapiens, UniProt P62942)
T1 construct: expressed in transfected cells; host or cells: HEK293T
Assay: HA-FKBP12 abundance by Western blotting in transfected HEK293T cells
Format: cell-based
Settings: for time after treatment until evidence of HA-FKBP12 degradation: 2 μM each, FLAG-DCAF1-transfected cells; for lowest concentration with evidence of FKBP12 degradation: HEK293T co-expressing HA-FKBP12 and FLAG-DCAF1; for degradation of FKBP12: cells expressing DCAF1-C1113A mutant; for hook effect in HA-FKBP12 degradation: emerging at 5 μM
From the text: (A) Left, western blots showing concentration-dependent effects of YT47R (upper) and YT41R (lower) on FKBP12 abundance in HEK293T cells expressing HA-FBKP12 with or without co-expression of FLAG-DCAF1. Right, quantification of HA-FKBP12 abundance in the indicated experimental groups. (B) Left, western blots showing effects of YT47R versus YT47S (upper) and YT41R versus YT41S (lower) on FKBP12 abundance in HEK293T cells co-expressing HA-FBKP12 and FLAG-DCAF1. Right, quantification of HA-FKBP12 abundance in the indicated experimental groups. (C) Western blots showing effects of YT47R (left blots) and YT41R (right blots) on FKBP12 abundance in HEK293T cells co-expressing HA-FBKP12 and either FLAG-DCAF1-WT or FLAG-DCAF1-C1113A mutant. Quantification of HA-FKBP12 abundance in the indicated experimental groups is shown in the adjacent bar graphs. For (A-C), FKBP12 abundance was determined at 24 h post-treatment with compounds, and data are mean values±SEM for three independent experiments. Statistical significance was calculated with unpaired two-tailed Student's t-tests comparing YT41R/YT47R- and DMSO-treated cells. ***P<0.001, ****P<0.0001.
(A) Left, western blots showing effects of proteasome (MG132) and Neddylation (MLN4924) inhibitors (1 h pre-treatment) on YT47R- and YT41R-dependent degradation of FKBP12 in HEK293T cells co-expressing HA-FBKP12 and FLAG-DCAF1. FKBP12 abundance was determined at 24 h post-treatment with YT47R or YT41R. Right, quantification of HA-FKBP12 abundance in the indicated experimental groups. (B) Left, western blots showing effects of the FKBP12 ligand SLF (20 μM) or DCAF1 ligand MY-11B (1 h pre-treatment with 20 μM SLF or 5 μM MY-11B) on YT47R- and YT41R-dependent degradation of FKBP12 in HEK293T cells co-expressing HA-FBKP12 and FLAG-DCAF1. FKBP12 abundance was determined at 24 h post-treatment with YT47R or YT41R. Right, quantification of HA-FKBP12 abundance in the indicated experimental groups. (C) Left, western blots showing effects of MY-11A or MY-11B (5 μM, 1 h pre-treatment) on YT47R- and YT41R-dependent degradation of FKBP12 in HEK293T cells co-expressing HA-FBKP12 and FLAG-DCAF1. FKBP12 abundance was determined at 24 h post-treatment with YT47R or YT41R. Right, quantification of HA-FKBP12 abundance in the indicated experimental groups. For (A-C), data are mean values±SEM for three-five independent experiments. Statistical significance was calculated with unpaired two-tailed Student's t-tests comparing YT41R/YT47R- and DMSO-treated cells. ****P<0.0001.
Figure S3. Concentration-dependent degradation of FKBP12 by DCAF1-directed electrophilic PROTACs. Top, western blots showing concentration-dependent effects of YT47R and YT41R on FKBP12 abundance in HEK293T cells co-expressing HA-FBKP12 and FLAG-DCAF1. Data are mean values±SEM for four independent experiments. Statistical significance was calculated with unpaired two-tailed Student's t-tests comparing YT41R/YT47R- and DMSO-treated cells. *P<0.1, **P<0.01, ***P<0.001, ****P<0.0001.
Figure S4. Time-dependent degradation of FKBP12 by DCAF1-directed electrophilic PROTACs. Top, western blots showing time-dependent effects of YT47R and YT41R (2 μM each) on FKBP12 abundance in HEK293T cells co-expressing HA-FBKP12 and FLAG-DCAF1. Data are mean values±SEM for four independent experiments. Statistical significance was calculated with unpaired two-tailed Student's t-tests comparing YT41R/YT47R- and DMSO-treated cells. ****P<0.0001.
We next treated HEK293T cells co-transfected with FLAG epitope-tagged full length DCAF1 (a.a.'s 1-1507) and HA (hemagglutinin) epitope-tagged FKBP12 with a concentration range of YT41R or YT47R and, after 24 h, measured HA-FKBP12 abundance by Western blotting.

[1] = HEK293T cells transfected only with HA-FKBP12, 24 h
[2] = HEK293T co-transfected with FLAG-DCAF1 and HA-FKBP12, 24 h

T1 sequence (P62942 whole entry): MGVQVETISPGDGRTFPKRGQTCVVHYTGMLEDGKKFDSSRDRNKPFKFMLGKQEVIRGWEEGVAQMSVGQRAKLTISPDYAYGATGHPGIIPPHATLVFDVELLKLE

SMILES: C=CC(=O)N1C[C@H](c2ccc(C(=O)NCCOCCOCCOCCNC(=O)COc3cccc([C@@H](CCc4ccc(OC)c(OC)c4)OC(=O)[C@@H]4CCCCN4C(=O)C(=O)C(C)(C)CC)c3)cc2)[C@@H]1C(=O)Nc1cccc2cccnc12 [YT47R]
- time after treatment until evidence of HA-FKBP12 degradation: ~24 h
- degradation of HA-FKBP12 [1]: not
- lowest concentration with evidence of FKBP12 degradation: 0.25 µM
- degradation of HA-FKBP12 [2]: Robust concentration-dependent degradation
- degradation of FKBP12: did not promote the degradation
- hook effect in HA-FKBP12 degradation: possible modest hook effect

SMILES: C=CC(=O)C1C[C@H](c2ccc(C(=O)NCCOCCOCCNC(=O)COc3cccc([C@@H](CCc4ccc(OC)c(OC)c4)OC(=O)[C@@H]4CCCCN4C(=O)C(=O)C(C)(C)CC)c3)cc2)[C@@H]1C(=O)Nc1cccc2cccnc12 (stereo partly drawn) [YT41R]
- time after treatment until evidence of HA-FKBP12 degradation: ~24 h
- degradation of HA-FKBP12 [1]: not
- lowest concentration with evidence of FKBP12 degradation: 0.25 µM
- degradation of HA-FKBP12 [2]: Robust concentration-dependent degradation
- degradation of FKBP12: did not promote the degradation
- hook effect in HA-FKBP12 degradation: possible modest hook effect
